What was measured:
TLR-2 = biological target: T1, TLR-2 (Homo sapiens, UniProt O60603); assay: Receptor specificity in primary human leukocytes: TLR-2; format: cell-based
T1 construct: related toll-like receptor family members and other nucleic acid intracellular signaling receptors in primary human leukocytes; endogenous in cells; host or cells: primary human leukocytes
Protocol: (§1) Example B5—Receptor Specificity
(§2) Representative compounds were tested for antagonist activity against related toll-like receptor family members and other nucleic acid intracellular signaling receptors in primary human leukocytes. The compounds were Compound Nos. 5 and 9, and they were tested for their ability to inhibit human RIG-I, TLR-2, TLR-4, and TLR-5. With one exception, neither compound was able to inhibit these receptors greater than 50% at 10 μM.

human RIG-I = biological target: T2, human RIG-I (Homo sapiens, UniProt O95786); assay: Receptor specificity in primary human leukocytes: RIG-I; format: cell-based
T2 construct: other nucleic acid intracellular signaling receptors in primary human leukocytes; endogenous in cells; host or cells: primary human leukocytes
T2 sequence (O95786 1-925): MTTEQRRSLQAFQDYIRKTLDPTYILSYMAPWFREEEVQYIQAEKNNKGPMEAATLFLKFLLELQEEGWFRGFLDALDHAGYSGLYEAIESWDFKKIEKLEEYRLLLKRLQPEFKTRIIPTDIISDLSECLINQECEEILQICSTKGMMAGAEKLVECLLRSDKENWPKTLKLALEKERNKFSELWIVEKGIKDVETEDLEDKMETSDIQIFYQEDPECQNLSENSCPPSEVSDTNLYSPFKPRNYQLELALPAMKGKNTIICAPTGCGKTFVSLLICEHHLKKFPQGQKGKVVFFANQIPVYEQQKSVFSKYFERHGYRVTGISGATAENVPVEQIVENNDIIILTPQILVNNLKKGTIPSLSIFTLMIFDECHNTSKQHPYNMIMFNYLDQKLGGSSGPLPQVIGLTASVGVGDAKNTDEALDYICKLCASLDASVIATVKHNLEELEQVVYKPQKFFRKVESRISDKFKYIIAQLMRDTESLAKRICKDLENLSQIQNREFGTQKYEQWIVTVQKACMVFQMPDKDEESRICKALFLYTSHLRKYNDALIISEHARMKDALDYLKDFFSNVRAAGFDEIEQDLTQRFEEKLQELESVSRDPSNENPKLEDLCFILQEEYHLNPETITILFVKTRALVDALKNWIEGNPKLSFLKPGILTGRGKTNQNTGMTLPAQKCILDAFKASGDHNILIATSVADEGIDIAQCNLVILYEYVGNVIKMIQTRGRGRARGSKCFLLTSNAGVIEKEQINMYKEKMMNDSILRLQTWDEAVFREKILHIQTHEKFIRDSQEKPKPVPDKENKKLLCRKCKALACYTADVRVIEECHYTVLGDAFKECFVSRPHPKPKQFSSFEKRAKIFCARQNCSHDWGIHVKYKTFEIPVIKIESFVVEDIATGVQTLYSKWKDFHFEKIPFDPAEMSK
Protocol: as §1, §2

TLR-5 = biological target: T3, TLR-5 (Homo sapiens, UniProt O60602); assay: Receptor specificity in primary human leukocytes: TLR-5; format: cell-based
T3 construct: related toll-like receptor family members and other nucleic acid intracellular signaling receptors in primary human leukocytes; endogenous in cells; host or cells: primary human leukocytes
Protocol: as §1, §2

TLR-4 = biological target: T4, TLR-4 (Homo sapiens, UniProt O00206+Q9Y6Y9); assay: Receptor specificity in primary human leukocytes: TLR-4; format: cell-based
T4 construct: related toll-like receptor family members and other nucleic acid intracellular signaling receptors in primary human leukocytes; endogenous in cells; host or cells: primary human leukocytes
Protocol: as §1, §2

mouse TLR9 = biological target: T5, mouse TLR9 (Mus musculus, UniProt Q9EQU3); assay: Inhibition of mouse TLR9 in mouse acute challenge model (serum IL-12); format: in vivo; settings: 5 mg/Kg, intravenous or intra-peritoneal, serum IL-12 four hours after CpG DNA agonist
T5 construct: Balb/c mice (Charles River); host or cells: Balb/c mice, in vivo
T5 sequence (Q9EQU3 26-1032): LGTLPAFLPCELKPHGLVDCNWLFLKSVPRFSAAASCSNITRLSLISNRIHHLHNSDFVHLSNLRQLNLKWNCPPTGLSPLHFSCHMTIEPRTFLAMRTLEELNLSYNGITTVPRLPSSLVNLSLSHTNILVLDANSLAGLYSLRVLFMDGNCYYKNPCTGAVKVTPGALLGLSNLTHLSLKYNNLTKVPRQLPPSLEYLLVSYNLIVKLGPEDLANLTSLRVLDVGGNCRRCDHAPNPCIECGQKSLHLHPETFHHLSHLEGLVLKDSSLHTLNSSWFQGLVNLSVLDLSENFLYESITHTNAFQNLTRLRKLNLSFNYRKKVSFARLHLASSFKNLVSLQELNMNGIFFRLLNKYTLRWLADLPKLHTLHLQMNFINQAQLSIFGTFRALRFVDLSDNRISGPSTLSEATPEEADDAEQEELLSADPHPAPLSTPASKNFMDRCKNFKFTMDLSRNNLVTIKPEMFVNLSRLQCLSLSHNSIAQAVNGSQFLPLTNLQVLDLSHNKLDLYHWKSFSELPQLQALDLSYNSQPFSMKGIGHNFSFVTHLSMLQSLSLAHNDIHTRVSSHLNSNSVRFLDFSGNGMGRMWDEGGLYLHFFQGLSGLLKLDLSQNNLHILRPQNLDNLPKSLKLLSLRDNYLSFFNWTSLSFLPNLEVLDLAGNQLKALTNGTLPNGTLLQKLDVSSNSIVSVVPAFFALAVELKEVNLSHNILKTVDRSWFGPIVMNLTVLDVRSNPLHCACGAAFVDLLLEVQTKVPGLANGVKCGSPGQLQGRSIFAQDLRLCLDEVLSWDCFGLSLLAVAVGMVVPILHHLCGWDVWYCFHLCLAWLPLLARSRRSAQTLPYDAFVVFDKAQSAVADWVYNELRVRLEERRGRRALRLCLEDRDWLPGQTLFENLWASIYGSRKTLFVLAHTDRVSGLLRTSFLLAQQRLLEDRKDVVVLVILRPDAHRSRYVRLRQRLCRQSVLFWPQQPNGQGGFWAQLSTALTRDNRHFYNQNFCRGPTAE
Protocol: Example B4—Inhibition of Mouse TLR9 in Mouse Acute Challenge Model
When administered a CpG-containing DNA oligonucleotide, mice respond in an acute manner with release of cytokines into the peripheral blood within 6 hours. The addition of an inhibitor against TLR9 will attenuate the response to the DNA oligonucleotide agonist, which can be measured through a reduction in serum cytokines.
Balb/c mice (Charles River). TLR9 agonist 1018 ISS, CpG-containing DNA oligonucleotide. Mouse interleukin (IL)-12p40 ELISA kit (BD Pharmingen Cat. No. 551219 and 554476).
Mice were injected by the intravenous or intra-peritoneal routes with test compound at 5 mg/kg. Following injection of test compound, mice were injected with a TLR9 agonist (a CpG-containing DNA oligonucleotide) by the intra-peritoneal route to a final dose of approximately 2.5 mg/kg. Four hours following administration of the DNA oligonucleotide, blood was collected and processed to serum. The serum was tested for the presence of IL-12 using an ELISA kit. The amount of IL-12 produced is a reflection of the amount of TLR9-dependent receptor activity.

T4 sequence (O00206 24-839): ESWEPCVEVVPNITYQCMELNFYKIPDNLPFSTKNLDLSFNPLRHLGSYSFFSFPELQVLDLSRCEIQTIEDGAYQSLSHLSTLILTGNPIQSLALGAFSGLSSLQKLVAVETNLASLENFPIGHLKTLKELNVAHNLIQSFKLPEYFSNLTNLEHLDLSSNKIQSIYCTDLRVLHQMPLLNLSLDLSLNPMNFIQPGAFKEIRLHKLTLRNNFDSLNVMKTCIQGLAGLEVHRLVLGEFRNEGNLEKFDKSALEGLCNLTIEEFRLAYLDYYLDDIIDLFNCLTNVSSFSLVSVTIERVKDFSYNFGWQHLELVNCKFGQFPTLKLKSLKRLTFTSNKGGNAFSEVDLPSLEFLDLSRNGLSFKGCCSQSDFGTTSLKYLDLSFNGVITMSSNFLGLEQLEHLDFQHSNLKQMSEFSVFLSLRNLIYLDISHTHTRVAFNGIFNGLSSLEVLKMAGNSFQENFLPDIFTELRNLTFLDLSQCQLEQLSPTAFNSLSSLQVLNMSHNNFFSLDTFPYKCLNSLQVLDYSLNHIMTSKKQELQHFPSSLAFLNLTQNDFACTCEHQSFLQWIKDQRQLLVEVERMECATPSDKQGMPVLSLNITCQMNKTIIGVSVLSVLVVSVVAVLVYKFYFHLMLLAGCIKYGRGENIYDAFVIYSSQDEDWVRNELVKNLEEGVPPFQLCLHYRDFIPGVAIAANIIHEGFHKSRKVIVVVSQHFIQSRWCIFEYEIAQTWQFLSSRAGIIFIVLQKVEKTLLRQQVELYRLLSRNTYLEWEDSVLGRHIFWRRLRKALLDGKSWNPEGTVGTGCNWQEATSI
T4 sequence (Q9Y6Y9 17-160 limits assumed): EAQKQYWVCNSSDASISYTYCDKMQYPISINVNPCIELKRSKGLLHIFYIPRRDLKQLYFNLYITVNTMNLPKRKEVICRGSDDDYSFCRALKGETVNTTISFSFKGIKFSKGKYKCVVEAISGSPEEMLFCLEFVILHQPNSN
T3 sequence (O60602 21-858): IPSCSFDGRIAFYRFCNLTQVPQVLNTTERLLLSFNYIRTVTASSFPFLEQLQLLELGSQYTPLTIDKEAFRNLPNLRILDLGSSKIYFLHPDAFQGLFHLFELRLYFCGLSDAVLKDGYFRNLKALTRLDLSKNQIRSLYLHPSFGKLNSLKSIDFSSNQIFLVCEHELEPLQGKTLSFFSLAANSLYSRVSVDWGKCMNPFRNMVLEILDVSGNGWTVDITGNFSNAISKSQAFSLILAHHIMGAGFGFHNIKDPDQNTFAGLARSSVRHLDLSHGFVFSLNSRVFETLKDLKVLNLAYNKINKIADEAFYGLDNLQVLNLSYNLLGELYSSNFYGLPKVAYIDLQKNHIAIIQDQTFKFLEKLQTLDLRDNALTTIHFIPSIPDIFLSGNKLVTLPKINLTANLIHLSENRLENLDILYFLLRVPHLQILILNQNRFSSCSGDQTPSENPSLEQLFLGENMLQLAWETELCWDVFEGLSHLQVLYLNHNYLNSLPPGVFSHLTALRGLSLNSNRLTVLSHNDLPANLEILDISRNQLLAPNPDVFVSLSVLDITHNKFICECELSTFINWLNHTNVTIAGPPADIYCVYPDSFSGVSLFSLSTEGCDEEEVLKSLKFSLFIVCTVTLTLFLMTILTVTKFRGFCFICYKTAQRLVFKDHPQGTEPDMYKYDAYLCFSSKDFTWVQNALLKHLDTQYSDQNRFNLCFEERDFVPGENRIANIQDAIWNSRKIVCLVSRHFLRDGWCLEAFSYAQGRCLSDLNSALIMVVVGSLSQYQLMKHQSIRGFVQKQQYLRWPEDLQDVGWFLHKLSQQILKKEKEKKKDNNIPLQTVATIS
T1 sequence (O60603 21-784): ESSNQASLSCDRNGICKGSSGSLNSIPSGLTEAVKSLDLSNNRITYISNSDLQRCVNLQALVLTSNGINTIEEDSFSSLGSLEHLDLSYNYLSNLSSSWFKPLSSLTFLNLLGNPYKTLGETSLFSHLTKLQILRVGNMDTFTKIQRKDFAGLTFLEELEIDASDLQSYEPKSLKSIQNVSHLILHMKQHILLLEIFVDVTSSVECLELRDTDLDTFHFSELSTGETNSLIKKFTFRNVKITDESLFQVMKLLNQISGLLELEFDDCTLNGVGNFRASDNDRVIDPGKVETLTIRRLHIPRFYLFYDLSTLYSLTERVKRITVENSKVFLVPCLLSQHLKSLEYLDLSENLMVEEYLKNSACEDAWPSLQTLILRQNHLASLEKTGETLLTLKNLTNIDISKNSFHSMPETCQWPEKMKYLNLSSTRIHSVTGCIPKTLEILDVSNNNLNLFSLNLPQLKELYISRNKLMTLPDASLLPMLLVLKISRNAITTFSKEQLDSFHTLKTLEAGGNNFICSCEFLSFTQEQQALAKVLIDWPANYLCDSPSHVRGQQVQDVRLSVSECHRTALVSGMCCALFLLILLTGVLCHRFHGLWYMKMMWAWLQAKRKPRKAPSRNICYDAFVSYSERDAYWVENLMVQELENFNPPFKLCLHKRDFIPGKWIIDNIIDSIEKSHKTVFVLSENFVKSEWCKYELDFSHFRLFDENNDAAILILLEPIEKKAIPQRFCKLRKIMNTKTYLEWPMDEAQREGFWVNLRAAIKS

Cc1ccc(-n2nc3c(N4CCC(C(=O)NCCCN(C)C)CC4)nnc(C)c3c2C)cc1 [Compound No. 5, 1-(3,4-dimethyl-2-(p-tolyl)-2H-pyrazolo[3,4-d]pyridazin-7-yl)-N-(3-(dimethylamino)propyl)piperidine-4-carboxamide]
inhibition at 10 µM (TLR-2): ≤ 50% | inhibition at 10 µM (human RIG-I; at 10 μM): ≤ 50% | inhibition at 10 µM (TLR-5): ≤ 50% | inhibition at 10 µM (TLR-4): ≤ 50% | inhibition of TLR9 activity in mice (FIG. 1) (mouse TLR9): inhibition of TLR9 activity

Cc1ccc(-n2nc3c(N4CCC(CCC(=O)NCCN(C)C)CC4)nnc(C)c3c2C)cc1 [Compound No. 9, 3-(1-(3,4-dimethyl-2-(p-tolyl)-2H-pyrazolo[3,4-d]pyridazin-7-yl)piperidin-4-yl)-N-(2-(dimethylamino)ethyl)propanamide]
inhibition at 10 µM (TLR-2): ≤ 50% | IC50 (human RIG-I; read-out: IC50 against RIG-I): 8.3 µM | inhibition at 10 µM (TLR-5): ≤ 50% | inhibition at 10 µM (TLR-4): ≤ 50%

Source: patent US11370794B2, “Toll-like receptor antagonist compounds and methods of use” (Dynavax Technologies Corporation, priority 2016, dated 2022)
